Test results published in patent US7101911B2, “Tryptase inhibitors” (Altana Pharma AG, priority 2001, dated 2006).
Counter-ions that a name gives are not always drawn.

Target: human tryptase
Assay: Inhibition of human tryptase (apparent dissociation constant, tos-Gly-Pro-Arg-pNA cleavage)
Type: biochemical
Settings: in the presence of substrate; heparin 0.1–50 μg/ml; equilibrium conditions; read-out: Kiapp (apparent dissociation constant of tryptase-inhibitor complex)
Text: The documented pathophysiological effects of mast cell tryptase are caused directly by the enzymatic activity of the protease. Accordingly, they are reduced or blocked by inhibitors which inhibit the enzymatic activity of the tryptase. A suitable measure for the affinity of a reversible inhibitor to the target protease is the equilibrium dissociation constant Ki of the enzyme-inhibitor complex. This Ki value can be determined via the effect of the inhibitor on the tryptase-induced cleavage of a chromogenic peptide-p-nitroanilide substrate or a fluorogenic peptide-aminomethylcoumarin substrate.
The dissociation constants for the tryptase-inhibitor complexes are determined under equilibrium conditions in accordance with the general proposals of Bieth (Bieth J G, Pathophysiological interpretation of kinetic constants of protease inhibitors, Bull. Europ. Physiopath. Resp. 16:183–195, 1980) and the methods of Sommerhoff et al. (Sommerhoff C P et al., A Kazal-type inhibitor of human mast cell tryptase: isolation from the medical leech Hirudo medicinalis, characterization, and sequence analysis, Biol. Chem. Hoppe-Seyler 375: 685–694, 1994).
Human tryptase is isolated from lung tissue or prepared recombinantly; the specific activity of the protease, determined by titration, is usually greater than 85% of the theoretical value. In the presence of heparin (0.1–50 μg/ml) for stabilizing the protease, constant amounts of the tryptase are incubated with increasing amounts of the inhibitors. After an equilibrium between the reaction partners has formed, the remaining enzyme activity after addition of the peptide-p-nitroanilide substrate tos-Gly-Pro-Arg-pNA is determined and the cleavage of the latter is monitored at 405 nm for 3 min. Alternatively, the remaining enzymatic activity can also be determined using fluorogenic substrates. The apparent dissociation constants Kiapp (i.e. in the presence of substrate) are subsequently determined by adapting the enzyme rates to the general equation for reversible inhibitors (Morrison J F, Kinetics of the reversible inhibition of enzyme-catalysed reactions by tight-binding inhibitors, Biochim. Biophys. Acta 185, 269–286, 1969) using non-linear regression: V1/V0=1−{Et+It+Kiapp−[(Et+It+Kiapp)^2−4EtIt]^1/2}/2Et
V1 and V0 are the rates in the presence and absence, respectively, of the inhibitor, and Et and It are the tryptase and inhibitor concentrations, respectively.
The apparent dissociation constants determined for the compounds according to the invention are shown in Table A below, where the numbers of the compounds correspond to the numbers of the compounds in the examples.

With `COC(=O)c1cc(C#CCOC(=O)NCc2cccc(CN)c2)c(C(=O)OC)cc1C#CCOC(=O)NCc1cccc(CN)c1` [Compound 8, Dimethyl 2,5-bis-[3-(3-aminomethylbenzylaminocarbonyloxy)prop-1-ynyl]terephthalate dihydrochloride] the Ki was 2.3 nM.

`NCc1ccc(CNC(=O)OCC#Cc2cc(C#CCOC(=O)NCc3ccc(CN)cc3)cc(C(=O)O)c2)cc1` [Compound 5, 3,5-Bis-[3-(4-aminomethylbenzylaminocarbonyloxy)prop-1-ynyl]benzoic acid dihydrochloride] was tested, and the Ki was 250 nM.

`CCOC(=O)c1cc(OCC#CCOC(=O)NCc2cccc(CN)c2)c(C(=O)OCC)cc1OCC#CCOC(=O)NCc1cccc(CN)c1` [Compound 9, Diethyl 2,5-bis-[4-(3-aminomethylbenzylaminocarbonyloxy)but-2-ynyl-1-oxy]terephthalate dihydrochloride] showed a Ki of 6 nM.

`COC(=O)c1cc(C#CCOC(=O)NCc2cccc(CN)c2)cc(C#CCOC(=O)NCc2cccc(CN)c2)c1` [Compound 2, Methyl 3,5-bis-[3-(3-aminomethylbenzylaminocarbonyloxy)prop-1-ynyl]benzoate dihydrochloride] gave a Ki of 1.6 nM.

In the case of `NCc1cccc(CNC(=O)OCC#Cc2cc(C#CCOC(=O)NCc3cccc(CN)c3)cc(C(=O)O)c2)c1` [Compound 3, 3,5-Bis-[3-(3-aminomethylbenzylaminocarbonyloxy)prop-1-ynyl]benzoic acid dihydrochloride], the Ki is reported as 40 nM.

`NCc1cccc(CNC(=O)OCC#Cc2ccc(C#CCOC(=O)NCc3cccc(CN)c3)c(C(=O)O)c2)c1` [Compound 7, 2,5-Bis-[3-(3-aminomethylbenzylaminocarbonyloxy)prop-1-ynyl]benzoic acid dihydrochloride] showed a Ki of 8.6 nM.

`COC(=O)c1cc(C#CCOC(=O)NCc2ccc(CN)cc2)cc(C#CCOC(=O)NCc2ccc(CN)cc2)c1` [Compound 4, Methyl 3,5-bis-[3-(4-aminomethylbenzylaminocarbonyloxy)prop-1-ynyl]benzoate dihydrochloride] was tested, and the Ki was 58 nM.

`NCc1ccc(CNC(=O)OCC#Cc2cc(C#CCOC(=O)NCc3ccc(CN)cc3)cc(CO)c2)cc1` [Compound 1, 3,5-Bis-[3-(4-aminomethylbenzylaminocarbonyloxy)prop-1-ynyl]-1-hydroxymethyl-benzene dihydrochloride] gave a Ki of 14 nM.

Work on `COC(=O)c1cc(C#CCOC(=O)NCc2cccc(CN)c2)ccc1C#CCOC(=O)NCc1cccc(CN)c1` [Compound 6, Methyl 2,5-bis-[3-(3-aminomethylbenzylaminocarbonyloxy)prop-1-ynyl]benzoate dihydrochloride] yielded a Ki of 0.3 nM.
